These results are taken from US9694010B2, “Therapeutic formulation and methods of treatment” (MacuCLEAR, Inc., priority 2012, dated 2017).

Data set [1] has as its system ARPE-19 cells. The data set is described as follows: tBHP-induced toxicity, MTT assay. As to conditions: 24 hours; for cell viability (maximum protection): 100 μg/mL of hydralazine, P<0.001. The method, then:
(§1) The human RPE cell line ARPE-19 (ATCC; Manassas, Va.) was cultured in Dulbecco's Modified Essential Medium (DMEM) supplemented with 10% fetal bovine serum, 50 units/mL penicillin-streptomycin and 2.5 mM glutamine at 37° incubation with 5% CO2. The cell line was not transformed and had structure and function properties characteristic of RPE in vivo. The cells were seeded into 96-well plates, and subconfluent cell monolayers were studied within 3 to 10 passages. Before starting the experimental procedures, the medium was removed and replaced with phenol red-free low-glucose DMEM supplemented with 1% calf serum, 0.06% glutamine, and 1% penicillin-streptomycin.
(§2) The cells were used for experiments when they reached 80% confluence to prevent contact inhibition.
(§3) After the 24-hour exposure, the MTT reagent solution (5 mg/mL) was added to each well in a ratio of 1:10 MTT reagent:culture medium volume. The cultures were incubated with the MTT reagent for 3 hours at 37° C. At the end of incubation, the MTT solution was removed, and 0.1 mL of dimethyl sulfoxide (DMSO) was added to each well to solubilize the purple formazan product. The proportion of viable cells was determined by measuring the optical density (OD) of each sample at 570 nm (A570) using a SpectraCount plate reader (Packard BioScience, Meridan, Conn.). The relationship between the OD readings in the MTT colorimetric assay and the exact cell number was determined by seeding cells at identical densities and then performing the MTT assay and manual hemocytometer cell counts on parallel replicate cultures. Trypan blue was added to the hemocytometer cultures so that only viable, dye-excluding cells were counted. This approach enabled the establishment of a standard curve for A570 versus cell number.
(§4) All data were presented as mean±standard error. A nonpaired Student t test was performed to analyze the significance between 2 means at a certain time point. The differences were considered significant at P<0.05. Results for nitric oxide measurements were expressed in μM nitrite and nitrate per 1×10^6 cells.
A general note: Formazan colour is commonly taken as a measure of viable cells.

The subject of data set [2] is ARPE-19 cells. Particulars: 24 hours; for cell viability (maximum protection): P<0.001. The method, then:
as §1, §2, §3, §4

The test system of data set [3] is ARPE-19 cells. Particulars: 1% O2, 1 μg/mL of hydralazine, P<0.001. The method, then:
In vitro hypoxia treatment was carried out using a ProOx hypoxia system. […] In hypoxia, oxygen concentrations of 1% O2 and 5% CO2 were maintained using a temperature- and humidity-controlled environmental C-chamber by O2 and CO2 controllers (ProOx Model 110 and ProCO2 Model 120; BioSpherix Ltd., Redfield, N.Y.) with N2 and CO2 gas sources. Reactions were stopped by washing out the medium, and 5 mg/mL MTT at a dilution of 1:10 based on the volume of culture medium was added for 3 hours at 37° C. At the end of incubation, the MTT solution was removed, and the cells were dissolved in 0.1 mL/well DMSO. The proportion viable cells were determined by measuring the OD of each sample at 570 nm using a SpectraCount plate reader (Packard BioScience, Meridan, Conn.).

Data set [4] relates to ARPE-19 cells. As to conditions: NaN3 0.1-100 mM, hydralazine 1, 3, 10, 30, 100 μg/mL.
Protocol: RPE cells were washed and replaced with fresh DMEM-F12 medium containing various concentrations of NaN3 (0.1 mM-100 mM). […] Reactions were stopped by washing out the medium.
For data set [5] the following is noted: cited from earlier work; for systemic bioavailability: gastrointestinal absorption.
For data set [6], the system named is Human Umbilical Vein Endothelial Cells (HUVEC). The data set is described as follows: In vitro tube formation. Particulars: 100 μg/ml, 48 hours.
For data set [7] the following is noted: 25° C., pH 3.5, cationic form; obtained by extrapolation. The source says:
In one embodiment, the hydralazine for use in the formulation is a hydralazine salt such as hydralazine hydrochloride.

How the values of data set [8] were obtained: Choroidal blood flow, velocity and volume were assessed following the first dosing of test material on each day. […] Measurements were made using a Laser Doppler Flowmetry device, which is a state-of-the-art, non-invasive and quantitative approach for visualizing and measuring subfoveal choroidal blood flow.
There was a trend of increased mean choroidal blood volume and velocity values in hydralazine hydrochloride-treated eyes, which peaked approximately 2 hours after topical ocular dosing on day 1 and returned to baseline values approximately 4 hours after dosing (i.e., 2 hours later). […] By contrast, in normal/healthy subjects both mean values and associated standard deviations (SDs) remained low at all time points on day 1. • Odds ratio analyses of the choroidal blood flow outcomes between the AMD and Normal groups for day 1 were evaluated.

The test system of the next data set is rabbit eye. The data set is described as follows: 28-day repeat dose ocular toxicity. In kind it is in vivo, Dutch Belted rabbits. The procedure:
Hydralazine hydrochloride ophthalmic solutions were prepared essentially as described in Example 1 at concentrations of 0.0% (vehicle), 0.5% hydralazine hydrochloride, 1.0% hydralazine hydrochloride, and 2.0% hydralazine hydrochloride. The formulation, vehicle or control was administered daily for 28 days to the designated eye of forty Dutch Belted rabbits (5 males and 5 females per group) as shown in Table 2. […]
A modified Hackett and McDonald microscopic ocular grading system (Hackett 1996) was applied to ocular findings following the use of a slit-lamp biomicroscope, which included insertion of a blue filter to assess for fluorescein dye retention. For any evaluated microscopic ocular examination parameter, there were no statistically significant differences, in either male or female rabbits, between Group 1 and Groups 2-4 during the pre dose or Day 29 study measurement periods.
Mean tonometry (Tono-pen; Reichert Ophthalmic Instruments, Depew, N.Y.) readings of IOP in control and test rabbits pre-dose and on Day 29 were between 15-25 mmHg, which is within the normal physiologic range. […]

The conditions of data set [9]: all subjects.
Description: Subjects in the dry AMD group had evidence of small and intermediate drusen, minimal or no pigment abnormalities in the macula (i.e., risk factor 2 on the AREDS Simplified Grading Scale), and a Snellen equivalent best corrected visual acuity (BCVA) equal to or better than 20/100.
The patients received 1 drop of test material in one eye and vehicle control in the contra-lateral eye. The patients administered the first dose of each day in the clinical setting and self-administered the remaining two doses of the day at prescribed time points.
On days 2 and 3, the evaluations were after the first two time-points. The 7th dose was administered in the morning on day 3. Seven days after the final dose, patients were contacted via telephone to evaluate any post study adverse events or issues.

Where a name gives a salt, the structure may show the parent alone. Read-outs that look alike come from different tables or passages of the source.

`NNc1nncc2ccccc12` [hydralazine]: the “cell viability (maximum protection)” value in the data set on ARPE-19 cells [1] (insult 0.01 mM tBHP) is on record as 109.99%±2.41%; in the data set with ARPE-19 cells [1] (insult 0.03 mM tBHP) it was 100.84%±13.00%; in the data set with ARPE-19 cells [2] (insult 0.3 mM H2O2 (second statement), 30 μg/mL of hydralazine), 68.04%±0.67%; in the data set with ARPE-19 cells [2] (insult 0.3 mM H2O2, 30 μg/mL of hydralazine), 74.30% ±0.80%. For the same compound, the “cell viability (maximum reversion)” value with ARPE-19 cells [3] (48 hours) is 101.21%±0.54%; in the data set on ARPE-19 cells [3] (72 hours), 103.55%±1.75%. In addition, the “effect on NaN3 chemically-induced hypoxia (viable cells)” value in the data set with ARPE-19 cells [4] is on record as “no significant effect”. Further, the systemic clearance in data set [5] (exceeds hepatic blood flow) is 50 mL/min/kg. Also, the systemic bioavailability is 16% in data set [5] (fast acetylators) and 35% in [5] (slow acetylators). In addition, the plasma half-life in data set [5] (in vivo) was 3 to 7 h. Also, in data set [5] (orally administered), the “time of peak concentration in plasma and maximal hypotensive effect” value is 30 to 120 min. For the same compound, the “effect on HUVEC” value in data set [6] is “caused apoptosis”.

In the case of `CC(C)(C)OO` [tBHP, Tert-Butyl hydroperoxide], the cell viability in the data set on ARPE-19 cells [1] (0.01 mM tBHP alone) was 89.90%±2.80%; in the data set on ARPE-19 cells [1] (0.03 mM tBHP alone) it was 55.80%±4.08%.

With `OO` [Formulation H2O2, hydrogen peroxide], the cell viability in the data set on ARPE-19 cells [2] (0.3 mM H2O2 alone) is recorded as 48.74%±2.40%; in the data set on ARPE-19 cells [2] (1.0 mM H2O2 alone) it was 41.28%±0.80%.

Regarding `NNc1nncc2ccccc12` [hydralazine hydrochloride, Hydralazine hydrochloride], the “rate constant (time with less than a 10% loss)” value in [7] was 1.5 years. For the same compound, the “odds ratio, choroidal blood volume outcome, AMD vs Normal group” value was 0.22 in data set [8] (day 1, 60 minute time point (p=0.337)) and 6.67 in data set [8] (day 1, 120 minute time point (p=0.106)). Besides, the “time of peak of mean choroidal blood volume and velocity” value in data set [8] (day 1, after topical ocular dosing, back to baseline approximately 4 hours after dosing) is given as “approximately 2 hours”. For the same compound, the “choroidal blood flow, mean scores” value in [8] (treated eyes in AMD subjects) is reported as “trend towards improved mean scores”. Also, in the data set on rabbit eye (28 days of daily topical ocular treatment, 0.5-2.0%, 40 μL), the dose-related toxicologic changes entry is on record as “did not result in the development of significant doserelated toxicologic changes”. The ocular histopathology result with rabbit eye (daily application of up to 2.0% for 28 days) is recorded as “did not result in the development of ocular pathology, inflammation, degeneration, or histologic evidence of toxicity”. The “average time to resolution of ocular hyperemia” value in [9] (range 1 to 4 days) is 1.85 days. Further, the “ocular hyperemia, treated eyes” value in data set [9] (hydralazine hydrochloride-treated eyes, 1 vehicle-treated eye) is on record as 21 eyes.
